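Where inhibition never reached the appropriate level, the endpoint shown equals the highest concentration tested. Otherwise, values were interpolated linearly from a five-concentration, 48-hour dose response in 96-well plates. GI50 marks 50% less growth.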 Calls of active or inactive are those of the source. Rule as the data show it: active = GI50 up to about 1.1 µM and inactive = higher.

Common to all, as to experiment: NCI tumour cell line growth inhibition, 48 h
Assay [1] concerns SW-620.
Assay [2] has as its system TK-10.
The subject of assay [3] is OVCAR-5.
Assay [4] concerns NCI-H460.
Assay [5] deals with Malme-3M.
The subject of assay [6] is PC-3.
In assay [7] the test system is DLD-1.
In assay [8] the test system is NCI/ADR-RES.
The test system of assay [9] is SF-268.
Assay [10] relates to EKVX.
The test system of assay [11] is SK-OV-3.
For assay [12], the system named is HT-29.
Assay [13] deals with SK-MEL-2.
The subject of assay [14] is ACHN.
For assay [15], the system named is SF-295.
In assay [16] the test system is U-251.
The test system of assay [17] is K562.
In assay [18] the test system is HOP-92.
Assay [19] deals with UACC-62.
The test system of assay [20] is RXF 393.

Regarding `Cc1nc2ccc(NCCN(C)C)c3c(=O)c4ccccc4n1c23`, the GI50 was 0.601 µM (active) in [1]; 4.08 µM (inactive) in assay [2]; 4.9 µM (inactive) in assay [3]; 0.736 µM (active) in assay [4]; 4.14 µM (inactive) in [5]; 1.1 µM (active) in [6]. Also, the GI50 was 2.74 µM (inactive) in assay [7]; 1.06 µM (active) in assay [8]; 3.48 µM (inactive) in assay [9]; 3.05 µM (inactive) in assay [10]; 3.96 µM (inactive) in assay [11]; 1.02 µM (active) in [12]. For the same compound, the GI50 in [13] was 5.47 µM (inactive); in assay [14] it was 1.52 µM (inactive); in [15], 1.84 µM (inactive); in assay [16], 2.22 µM (inactive); in assay [17], 1.39 µM (inactive); in assay [18], 2.25 µM (inactive). Moreover, the GI50 in assay [19] was 5.02 µM (inactive); in assay [20], 10.5 µM (inactive).
Take `CCCCCCCCCCCC(=O)OC[C@H](C[As](=O)(O)O)OC(=O)CCCCCCCCCCC`: the GI50 is 14.4 µM (inactive) in [1]; 3.87 µM (inactive) in [2]; 18.2 µM (inactive) in assay [3]; 4.79 µM (inactive) in assay [4]; 2.3 µM (inactive) in assay [5]; 2.9 µM (inactive) in assay [6]. Further, the GI50 is 13.2 µM (inactive) in assay [7]; 14.1 µM (inactive) in assay [8]; 8.13 µM (inactive) in assay [9]; 10.2 µM (inactive) in [10]; 14.7 µM (inactive) in assay [11]; 8.02 µM (inactive) in assay [12]. The GI50 in [13] is 2.68 µM (inactive); in assay [14], 2.79 µM (inactive); in assay [15], 13.4 µM (inactive); in assay [16] it was 2.36 µM (inactive); in assay [17], 4.89 µM (inactive); in assay [18] it was 1.75 µM (inactive). Moreover, the GI50 was 2.3 µM (inactive) in assay [19] and 1.92 µM (inactive) in assay [20].
For the compound `CCC1(c2ccc(N)cc2)CCC(=O)NC1=O` (stereo not given) [AMINOGLUTETHIMIDE], the GI50 in [1] was 3520 µM (inactive); in assay [2], 2170 µM (inactive); in assay [3] it was > 4920 µM (inactive); in [4], 2580 µM (inactive); in [5], 2960 µM (inactive); in assay [6], 1170 µM (inactive). Besides, the GI50 in assay [7] is 3230 µM (inactive); in [8], 1680 µM (inactive); in [9], 2860 µM (inactive); in [10] it was 3880 µM (inactive); in [11] it was 1190 µM (inactive); in [12], 2960 µM (inactive). Moreover, the GI50 in assay [13] was 3510 µM (inactive); in assay [14], 2490 µM (inactive); in assay [15] it was 1880 µM (inactive); in [16], 2050 µM (inactive); in assay [17], 2080 µM (inactive); in assay [18] it was 1030 µM (inactive). The GI50 in [19] is 1820 µM (inactive); in assay [20], 1330 µM (inactive).

The values are drawn from ChEMBL document CHEMBL1201862, “PubChem BioAssay data set” (2004).
